# Data from paper PMC8290231 (Cancer Medicine, 2021).
# Read-outs that look alike come from different tables or passages of the source.
# Legend:
# A549 = assay: CCK-8 cell proliferation assay; assay type: cell-based; details: Homo sapiens, A549, 72 h, negative control; CCK-8, 72 h; read-out: antiproliferative IC50, A549
# Procedure: (§1) The base medium for MDA‐MB‐453 cell line is DMEM medium (CORNING, USA). All other cell lines were cultured in RPMI‐1640 medium supplemented with 10% FBS, 100 U/ml of penicillin, and […] of streptomycin in 5% CO2 at 37℃. The cells in the logarithmic growth phase were used for the experiments.
# (§2) Cells were seeded in 96‐well plate in complete medium (1000–6000 cells/well) and cultured for overnight. Then the cells were exposed to gradient concentrations (0.0005–10 μM) of compounds. Cell proliferation was analyzed by Cell Counting Kit 8 (CK04, Dojindo Laboratories, Japan) after co‐incubation for a further 72 h. IC50 values were calculated by fitting of concentration–response curves using GraphPad Prism 8.01 software. Each assay was repeated at least three times.
# (§3) The expression and activation levels of FGFR1–4 in these cells were determined via western blot experiments (Figure S1).
# Ba/F3(+IL‐3) = assay: CCK-8 proliferation assay in parental Ba/F3 cells; assay type: cell-based; details: Mus musculus, read-out: IC50 (μΜ) Ba/F3(+IL‐3)
# Procedure: (§4) The Ba/F3 cell lines stably expressing FGFR1, FGFR1‐V561M, FGFR1‐V561F, FGFR1‐K656N, and FGFR1‐K656E were self‐established through electroporation pCDNA3.1‐TEL plasmids using the Amaxa Cell Line Nucleofector Kit V (Lonza, Cologne, Germany). Stable cell lines were selected by G418 (Merck, USA) and then withdrawal of IL‐3 (R&D). […] Parental Ba/F3 cells were maintained in RPMI 1640 supplemented with 10% FBS, 100 U/ml of penicillin, […] of streptomycin, and 10 ng/ml of IL‐3, while all Ba/F3 stable cell lines were cultured in the same medium without IL‐3.
# as §2
# (§5) There is, however, no commercially available FGFR1 mutant kinase to validate this. Therefore, we constructed Ba/F3 model cells stably expressing FGFR1‐WT, K656E, K656N, V561M, and V561F mutations.
# [1] = tested on: FGFR1 signal pathway in Ba/F3‐FGFR1‐V561M; assay: Western blot of FGFR1 signal pathway; assay type: cell-based; details: 300 nM
# Procedure: (§6) Cells were treated with different concentrations of compound or DMSO for indicated time. Then, cells were lysed with 1 × SDS sample lysis buffer (recommended by CST). […] After blocking with 5% BSA in TBST solution (0.5% Tween‐20) at room temperature for 4 hrs, the membranes were incubated with the corresponding primary antibody (1:2000–1:200) at 4℃ overnight. After washing with TBST for 3–5 times, the HRP‐conjugated secondary antibodies were incubated for 2 hrs. The protein signals were detected with Amersham Imager 600 system (GE, Boston, MA, USA) using an ECL western blotting detection kit (Thermo Fisher Scientific, Waltham, MA, USA).
# (§7) Cell lysates were separated by sodium dodecyl sulfate‐polyacrylamide gel electrophoresis (SDS‐PAGE) and analyzed by western blot for phosphorylated FGFR1, FGFR1, phosphorylated FRS2, FRS2, phosphorylated AKT (Ser473), AKT, phosphorylated Erk, and Erk. GAPDH was used as a control
# Ba/F3‐FGFR1‐V561F = assay: CCK-8 proliferation assay in Ba/F3 stable cells; assay type: cell-based; details: Mus musculus
# Procedure: as §4, §2, §5
# Ba/F3‐FGFR1 xenograft = assay: Mouse xenograft tumor model; assay type: in vivo, CB17‐SCID mice; details: for tumor growth inhibition (TGI): oral gavage
# Source text: (§8) All animal studies were approved by the Institutional Animal Care and Use Committee. Male CB17‐SCID mice were purchased from Vital River Laboratory Animal Technology Inc. (Beijing, China). The right flanks of SCID mice were subcutaneously injected with 2 x 10^6 Ba/F3‐FGFR1, Ba/F3‐FGFR1‐V561F, or Ba/F3‐FGFR1‐V561M cells, respectively. When the average tumor volume reached 100–200 mm^3, mice bearing tumor were randomly divided into groups and treated with compounds or vehicle. All the compounds were suspended in 0.5% CMC‐Na aqueous solution. […] The body weight and tumor volume of animals were measured once every 2 days. Tumor volumes were calculated as L×W×W/2, where L and W are the length and width of the tumor, respectively. At the experiment terminal, tumor tissues were dissected, paraffin embedded, and sectioned for hematoxylin and eosin (H&E), immunohistochemistry (IHC), and TUNEL analysis.
# [2] = tested on: Ba/F3‐FGFR1‐V561F xenograft; assay: Mouse xenograft tumor model; assay type: in vivo, CB17‐SCID mice
# Source text: as §8
# pAKT in NCI‐H716 = assay: Western blot of pAKT; assay type: cell-based; details: NCI‐H716, FGFR2 overexpressed, 3.7 to 300 nM
# Procedure: as §6
# pAKT in SNU‐16 = assay: Western blot of pAKT; assay type: cell-based; details: SNU‐16, FGFR2 overexpressed, 3.7 to 300 nM
# Procedure: as §6
# A204 = assay: CCK-8 cell proliferation assay; assay type: cell-based; details: Homo sapiens, A204; FGFR1 amplification; CCK-8, 72 h; read-out: antiproliferative IC50, A204
# Procedure: as §1, §2, §3
# FGFR1 [3] = biological target: T1, FGFR1 (Homo sapiens, UniProt P11362); assay: KINOMEscan binding affinity assay
# T1 construct: purchased Invitrogen (Waltham, MA, USA)
# [4] = tested on: FGFR1 signal pathway in H1581; assay: Western blot of FGFR1 signal pathway; assay type: cell-based
# Procedure: as §6, §7
# [5] = tested on: FGFR1 signal pathway in A204; assay: Western blot of FGFR1 signal pathway; assay type: cell-based
# Procedure: as §6, §7
# FGFR3‐K650E = biological target: T2, FGFR3‐K650E (Homo sapiens, UniProt P22607, K650E); assay: KINOMEscan binding affinity assay
# T2 construct: purchased KINOMEscan™ (commercial assay)
# FGFR3 = FGFR3 (Homo sapiens, UniProt P22607); assay: FRET-based Z′-Lyte kinase assay; assay type: biochemical
# FGFR1 [6] = biological target: T1, FGFR1; assay: FRET-based Z′-Lyte kinase assay; assay type: biochemical
# Procedure: FGFR1 and the Z′‐Lyte kinase assay kit were purchased from Invitrogen (Waltham, MA, USA) and the assays were performed according to the manufacturer's instructions as described previously.[27]
# [7] = tested on: Ba/F3 stable cells (FGFR1‐V561F/M and other mutant); assay: CCK-8 proliferation, Ba/F3 stable cells with FGFR1 and mutants (summary); assay type: cell-based; details: Mus musculus, BaF3; range over Ba/F3 stable cells
# Procedure: as §4, §2, §5
# T1 sequence (P11362 22-822): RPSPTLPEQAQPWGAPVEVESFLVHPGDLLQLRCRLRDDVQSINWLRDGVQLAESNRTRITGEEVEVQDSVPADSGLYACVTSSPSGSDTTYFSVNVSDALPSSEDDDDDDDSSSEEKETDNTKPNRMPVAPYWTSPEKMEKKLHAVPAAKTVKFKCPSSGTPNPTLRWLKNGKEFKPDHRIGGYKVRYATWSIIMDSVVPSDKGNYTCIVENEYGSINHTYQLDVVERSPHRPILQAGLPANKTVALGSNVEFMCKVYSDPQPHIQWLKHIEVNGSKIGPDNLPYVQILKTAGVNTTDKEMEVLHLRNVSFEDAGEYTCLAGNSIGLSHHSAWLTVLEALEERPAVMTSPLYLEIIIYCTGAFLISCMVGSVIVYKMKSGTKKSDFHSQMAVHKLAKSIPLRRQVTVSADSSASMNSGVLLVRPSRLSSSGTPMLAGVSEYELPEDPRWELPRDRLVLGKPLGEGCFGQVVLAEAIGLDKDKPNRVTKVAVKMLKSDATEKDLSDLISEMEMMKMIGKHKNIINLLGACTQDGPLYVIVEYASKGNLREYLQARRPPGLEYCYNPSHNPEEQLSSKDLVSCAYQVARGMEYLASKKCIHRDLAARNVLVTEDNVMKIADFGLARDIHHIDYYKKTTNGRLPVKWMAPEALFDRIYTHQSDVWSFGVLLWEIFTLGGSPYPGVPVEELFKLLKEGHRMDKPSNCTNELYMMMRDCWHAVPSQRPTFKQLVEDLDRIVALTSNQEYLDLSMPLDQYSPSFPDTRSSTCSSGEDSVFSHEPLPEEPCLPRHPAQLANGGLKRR
# FGFR3, sequence (P22607 23-806): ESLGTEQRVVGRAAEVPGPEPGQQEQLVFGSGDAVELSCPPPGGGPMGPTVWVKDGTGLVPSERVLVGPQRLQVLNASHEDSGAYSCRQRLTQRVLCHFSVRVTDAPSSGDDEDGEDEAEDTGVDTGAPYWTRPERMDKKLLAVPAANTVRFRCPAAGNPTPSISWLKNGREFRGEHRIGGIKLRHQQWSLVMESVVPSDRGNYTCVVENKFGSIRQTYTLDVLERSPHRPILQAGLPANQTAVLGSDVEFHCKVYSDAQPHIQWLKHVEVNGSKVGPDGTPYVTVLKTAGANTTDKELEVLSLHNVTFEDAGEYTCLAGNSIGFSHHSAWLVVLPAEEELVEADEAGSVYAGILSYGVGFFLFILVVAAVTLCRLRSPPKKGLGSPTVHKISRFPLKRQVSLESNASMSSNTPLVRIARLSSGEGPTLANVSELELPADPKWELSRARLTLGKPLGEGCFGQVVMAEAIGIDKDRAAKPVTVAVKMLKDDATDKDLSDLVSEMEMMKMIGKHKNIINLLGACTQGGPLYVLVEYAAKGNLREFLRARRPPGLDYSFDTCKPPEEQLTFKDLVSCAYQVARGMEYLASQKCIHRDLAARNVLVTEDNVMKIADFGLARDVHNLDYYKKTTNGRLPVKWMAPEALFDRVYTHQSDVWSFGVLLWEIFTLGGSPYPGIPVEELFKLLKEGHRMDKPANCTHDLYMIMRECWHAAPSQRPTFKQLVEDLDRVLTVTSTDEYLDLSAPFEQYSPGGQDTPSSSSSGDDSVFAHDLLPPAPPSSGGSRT
# T2 sequence (P22607 23-806 K650E): as the sequence (P22607 23-806) above, with K628E counted along it
smiles,measurement,setting,value
CCN1CCN(c2ccc(Nc3cc(N(C)C(=O)Nc4c(Cl)c(OC)cc(OC)c4Cl)ncn3)cc2)CC1 [BGJ398],IC50,A549,8730 ± 1930 nM
same,IC50,"Ba/F3(+IL‐3); BaF3, parental cells with IL-3, CCK-8, 72 h",5660 ± 880 nM
same,activation of FGFR1 and its signal pathway,[1],no effects
same,IC50,"Ba/F3‐FGFR1‐V561F; BaF3, CCK-8, 72 h, read-out: IC50 (μΜ) Ba/F3‐FGFR1‐V561F",4250 ± 64 nM
same,IC50,"Ba/F3‐FGFR1‐V561F; BaF3, bound stated, read-out: IC50 Ba/F3‐FGFR1‐V561F",> 330 nM
same,tumor growth inhibition (TGI),"Ba/F3‐FGFR1 xenograft; 10 mg/kg, once every day",64.2%
same,tumor growth inhibition (TGI),"[2]; 30 mg/kg, oral gavage, once every day",2.4%
Cc1ccc(C(=O)Nc2ccc(CN3CCN(C)CC3)c(C(F)(F)F)c2)cc1C#Cc1cnc2[nH]ncc2c1 [GZD824],effect on pAKT,pAKT in NCI‐H716,strongly inhibit
same,effect on pAKT,pAKT in SNU‐16,strongly inhibit
same,IC50,A204,24.4 ± 6.2 nM
same,IC50,"Ba/F3(+IL‐3); BaF3, 72 h",1710 ± 590 nM
same,Kd,FGFR1 [3],7.3 ± 0.3 nM
same,dose with obvious inhibition of pFRS2 and pERK,[4]; H1581,≥ 3.7 nM
same,total level of FGFR1 protein expression,[4]; H1581,no obvious effect
same,"FGFR1 phosphorylation, downstream FRS2 and ERK1/2","[4]; H1581, 4 h, 3.7 nM to 300 nM",dose‐dependent inhibition
same,effect on pAKT,"[4]; H1581, even at 300 nM",no effect
same,dose with obvious inhibition of pFRS2 and pERK,[5]; A204,≥ 3.7 nM
same,total level of FGFR1 protein expression,[5]; A204,no obvious effect
same,effect on pAKT,"[5]; A204, even at 300 nM",no effect
same,Kd,FGFR3‐K650E,11 nM
same,IC50,FGFR3,8.1 ± 0.15 nM
same,EC50,FGFR3; Figure 1B curve fit,8.2 nM
same,IC50,"Ba/F3‐FGFR1‐V561F; BaF3, 72 h, read-out: IC50 (μΜ) Ba/F3‐FGFR1‐V561F",12 ± 0.5 nM
same,IC50,FGFR1 [6],4.14 ± 0.96 nM
same,EC50,FGFR1 [6]; Figure 1B curve fit,4.82 nM
same,tumor growth inhibition (TGI),Ba/F3‐FGFR1 xenograft; 20 mg/kg,76.5%
same,IHC (pFGFR1) and TUNEL in tumor tissues,Ba/F3‐FGFR1 xenograft; 12 days,inhibits the FGFR1 activation and induces apoptosis
same,tumor growth inhibition (TGI),"[2]; 20 mg/kg, p.o., q2d",73.4%
same,IHC (pFGFR1) and TUNEL in tumor tissues,[2]; 12 days,inhibits the FGFR1 activation and induces apoptosis
same,IC50,[7],8.1 to 55 nM
